Test results from patent US8541471B2, “Water-soluble strontium salts for use in treatment of cartilage and/or bone conditions” (Osteologix A/S, priority 2003, dated 2013).
Like-named read-outs stand apart in the source and are kept apart here. Each block holds one compound with its values, some of them ahead of it.

Tests used:
[1] = not given; remark: listed apart in the source
[2] = target: T1, calcium-sensing receptor (CaR) (Homo sapiens, UniProt P41180); settings: studies have shown; cited from earlier work
T1 sequence (P41180 20-1078): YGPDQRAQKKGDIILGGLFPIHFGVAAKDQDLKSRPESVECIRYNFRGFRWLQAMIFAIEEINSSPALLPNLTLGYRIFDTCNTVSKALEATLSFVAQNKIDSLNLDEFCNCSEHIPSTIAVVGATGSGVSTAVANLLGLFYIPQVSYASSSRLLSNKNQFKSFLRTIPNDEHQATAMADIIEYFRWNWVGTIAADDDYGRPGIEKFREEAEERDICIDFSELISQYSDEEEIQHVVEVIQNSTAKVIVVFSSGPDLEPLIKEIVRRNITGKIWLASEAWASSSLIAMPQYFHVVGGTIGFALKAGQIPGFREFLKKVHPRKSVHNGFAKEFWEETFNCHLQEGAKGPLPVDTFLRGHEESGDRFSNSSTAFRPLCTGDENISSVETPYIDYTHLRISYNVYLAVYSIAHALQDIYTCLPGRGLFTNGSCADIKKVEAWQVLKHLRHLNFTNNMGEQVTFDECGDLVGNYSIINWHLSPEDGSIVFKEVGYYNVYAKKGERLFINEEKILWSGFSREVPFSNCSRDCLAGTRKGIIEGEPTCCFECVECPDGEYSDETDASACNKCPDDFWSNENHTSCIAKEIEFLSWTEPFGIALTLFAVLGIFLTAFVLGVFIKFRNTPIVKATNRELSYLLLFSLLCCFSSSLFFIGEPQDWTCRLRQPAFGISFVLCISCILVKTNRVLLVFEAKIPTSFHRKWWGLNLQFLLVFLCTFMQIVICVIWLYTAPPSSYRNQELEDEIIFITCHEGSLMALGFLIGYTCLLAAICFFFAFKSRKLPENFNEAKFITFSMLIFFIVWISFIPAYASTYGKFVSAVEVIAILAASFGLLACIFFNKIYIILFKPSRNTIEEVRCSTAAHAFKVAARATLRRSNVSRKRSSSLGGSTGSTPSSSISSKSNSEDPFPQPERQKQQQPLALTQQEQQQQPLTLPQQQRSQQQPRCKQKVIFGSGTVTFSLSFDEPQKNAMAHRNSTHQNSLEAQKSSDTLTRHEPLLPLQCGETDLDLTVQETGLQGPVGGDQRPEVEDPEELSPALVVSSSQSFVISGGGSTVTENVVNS

Compound: [Cl-].[Cl-].[Sr+2] [Chloride, strontium chloride, reference compound]
- AUC (rat, in vivo, po): 7300 mg·min/L
- time to maximum serum strontium concentration (rats, single oral gavage): approximately 2 hours

Compound: O=C([O-])/C=C/C(=O)[O-].[Sr+2] [Fumerate, strontium fumarate]
- SOLUBILITY AT 40° C. pH 7.5 [1]: 977 mg/L
- SOLUBILITY AT ROOM TEMPERATURE (22-24° C.) pH 7.5 [1]: 1215 mg/L

- AUC (female, Wistar HanTac:WH (GALAS), rat, in vivo, po): 10100 mg·min/L
- rate of metabolism (second peak of model fit) (rat, in vivo): rests longer in the serum
Compound: N[C@@H](CCC(=O)[O-])C(=O)[O-].O.O.O.O.O.O.[Sr+2] [L-glutamate, strontium glutamate hexahydrate]

Compound: O=C([O-])/C=C\C(=O)[O-].[Sr+2] [Maleate, strontium maleate]
- SOLUBILITY AT 40° C. pH 7.5 [1]: 1457 mg/L
- SOLUBILITY AT ROOM TEMPERATURE (22-24° C.) pH 7.5 [1]: 1680 mg/L

- SOLUBILITY AT 40° C. pH 7.5 [1]: 1970 mg/L
- SOLUBILITY AT ROOM TEMPERATURE (22-24° C.) pH 7.5 [1]: 890 mg/L
- time to maximum serum strontium concentration (rat, in vivo, po): approximately 2 hours
Compound: N#Cc1c(N(CC(=O)[O-])CC(=O)[O-])sc(C(=O)[O-])c1CC(=O)[O-].[Sr+2].[Sr+2] [Ranelate, distrontium salt of 2-[N,N-di(carboxymethyl)amino]-3-cyano-4-carboxymethylthiophene-5-carboxylic acid, reference compound]

Compound: [Sr+2] [strontium]
- activity at the calcium-sensing receptor (CaR) [2]: full agonist

Compound: strontium alpha-ketoglutarate [α-ketogluterate]
- rate of metabolism (second peak of model fit) (rats, FIGS. 9A-B): quickly metabolized
